According to article PMC7562955 (Nature Communications, 2020):

Biological target: T1, TLR7 extracellular domain (Macaca mulatta, UniProt B3Y653, N167Q/N389Q/N488Q/N799Q)
T1 construct: Monkey (Macaca mulatta) TLR7 extracellular domain expression construct; protein A tag (C, cleaved yes); made in house; host or cells: Drosophila S2 cells
T1 sequence (B3Y653 with tags, fused parts or gaps N167Q/N389Q): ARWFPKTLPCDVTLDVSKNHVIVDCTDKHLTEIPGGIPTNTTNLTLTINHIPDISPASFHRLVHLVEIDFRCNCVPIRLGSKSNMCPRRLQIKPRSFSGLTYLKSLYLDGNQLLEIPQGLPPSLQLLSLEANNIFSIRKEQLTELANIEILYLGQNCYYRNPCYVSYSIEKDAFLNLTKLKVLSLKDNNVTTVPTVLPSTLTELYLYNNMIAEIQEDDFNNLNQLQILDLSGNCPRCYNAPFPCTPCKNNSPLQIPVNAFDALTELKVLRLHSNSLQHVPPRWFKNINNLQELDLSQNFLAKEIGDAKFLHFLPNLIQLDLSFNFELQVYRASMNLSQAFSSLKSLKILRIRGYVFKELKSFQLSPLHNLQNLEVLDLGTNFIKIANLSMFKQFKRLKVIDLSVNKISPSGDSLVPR
T1 sequence (B3Y653 with tags, fused parts or gaps N488Q/N799Q): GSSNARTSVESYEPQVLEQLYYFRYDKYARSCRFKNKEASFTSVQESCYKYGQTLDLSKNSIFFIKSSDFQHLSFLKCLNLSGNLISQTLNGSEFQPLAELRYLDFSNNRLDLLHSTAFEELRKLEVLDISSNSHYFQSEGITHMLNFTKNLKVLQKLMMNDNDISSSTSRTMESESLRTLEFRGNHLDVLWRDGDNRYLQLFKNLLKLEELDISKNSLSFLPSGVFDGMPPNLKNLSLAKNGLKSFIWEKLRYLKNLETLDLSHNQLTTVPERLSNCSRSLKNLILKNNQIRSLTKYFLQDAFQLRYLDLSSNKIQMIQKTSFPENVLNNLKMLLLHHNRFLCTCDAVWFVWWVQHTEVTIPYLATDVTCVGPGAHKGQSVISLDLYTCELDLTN
Test: ITC titration to TLR7 recombinant protein
Type: binding, Monkey (Macaca mulatta)
Settings: pH 4.7; read-out: Dissociation constant KD
Protocol: The recombinant TLR7 proteins expressed in Drosophila S2 cells (Thermo Fisher Scientific) using Monkey (Macaca mulatta) TLR7 extracellular domain expression construct with N167Q, N399Q, N488Q and N799Q mutations and cleavable Z-loop and C-terminal protein A tag were prepared and were stored in a buffer containing 10 mM Tris-HCl pH 7.5 and 150 mM NaCl at concentrations of 10–15 mg ml^−1. Briefly, the purification steps included IgG affinity purification, the Z-loop and the protein A tag cleavage, and gel-filtration chromatography. Glycan-trimmed TLR7 proteins, expressed in the presence of 1.5 mg l^−1 kifunensine (Glycosyn) and treated by Endo Hf (New England Biolabs) were used for crystallization. Glycan-untrimmed proteins were used in ITC analysis, crosslinking assay, negative-staining EM and cryo-EM (200 kV microscopes) analyses. Glycan-trimmed TLR7 proteins with partially-uncleaved protein A tag were used for cryo-EM analysis using Tatan Krios (Supplementary Fig. 11).
ITC experiments (Fig. 2a) were conducted at 298 K in a final buffer condition of ~30 mM citrate-NaOH pH 4.7 or pH 5.7 (Hampton Research), 150 mM NaCl by using a MicroCal iTC200 (Malvern Panalytical). […]

SMILES	Kd [µM]
CCOc1nc(N)c2nc(-c3cncc(F)c3)n(Cc3ccc(CN4C[C@@H]5C[C@H]4CN5C)cc3)c2n1 [Cpd-6]	10
CCOc1nc(C)c2nc(-c3cncc(F)c3)n(Cc3ccc(CN4C[C@@H]5C[C@H]4CN5C)cc3)c2n1 [Cpd-7]	7.4
